For data set [1], the target named is T1, hrPARP-1 (human recombinant, Trevigen) (Homo sapiens, UniProt P09874).
T1 construct: purchased Trevigen
Briefly: Functional assessment of human PARP-1 enzymatic activity. The data set is classed as biochemical. To be noted: 1 U hrPARP-1, 15 μg/mL activated DNA, 5 μM NAD+, 20 min room temperature. The protocol: Functional Assessment of Human PARP-1 Enzymatic Activity
hrPARP-1 (human recombinant, Trevigen), Activated DNA (Sigma), 6(5H)-phenanthridinone (PND), (Sigma), NAD+ (Calbiochem), PARP-1 assay buffer (50 mM Tris, 2 mM MgCl2, pH 8.0), 20% acetophenone in EtOH, 2 M KOH
88% formic acid, 110° C. oven, Flexstation Plate Reader.
Compound plates were prepared by making a series of 1:3 dilutions for each tested compound, 10 steps of each at 20 μL in DMSO starting from a concentration of 5 mM. NAD^+ (39 μL of a 6.4 μM solution) were added to each well of a 96-well flat bottom fluorescent assay plate. Test compound (1 μL) was added to each well. To initiate the reaction, 10 μL of PARP (contains 5 U of PARP and 75 μg/mL activated DNA) was added with a final 1 U hrPARP-1, 15 μg/mL activated DNA and 5 μM of NAD^+. The highest concentration used for test compounds was 100 μM. The plates were incubated at room temperature on a shaker. After 20 min, 20 μL of 2 M KOH and 20 μL of 20% acetophenone were added. The plate was incubated 10 min. at 4° C., and 90 μL of 88% formic acid was added. After incubating in an 110° C. oven for 5 min, the plate was cooled to room temperature and read of a Flexstation Plate Reader (excitation at 360 nm, emission at 445 nm).
LSW data analysis software was used to generate PARP-1 IC50s.

A short description of data set [2]: Brain (B)-Plasma (P) dialysis. The data set is classed as in vitro ADME. To be noted: for Kp at 5 h, 10 μM: diluted plasma or brain homogenate vs PBS, 37° C., read-out: Brain-Plasma Dialysis B/P Ratio; for B/P ratio divided by MDCK efflux ratio at 10 μM: read-out: Brain-Plasma Dialysis B/P/efflux ratio (ER). The protocol: 2. Brain (B)-Plasma (P) Dialysis
DMSO stock solution of 1 mM was prepared and 10 μL was added to 990 uL plasma (1 plasma:3 PBS) or brain homogeneous (1 brain:12 PBS). The final concentration was 10 μM test compound with 1% DMSO. The dialysis was setup with 200 uL PBS vs. 200 uL diluted plasma or diluted brain homogenates with test compounds. The dialysis plate was incubated at 37° C., 70 RPM for 5 hours. At the end of the incubation, 150 μL PBS, 50 uL plasma and 50 uL of brain homogenates were sampled from the dialysis device. Each of the samples was matched with PBS, plasma and brain homogenates to give consistent matrix material. Cold acetonitrile of 300 μL was added to the sample to precipitate the proteins and tissues. The solutions were centrifuged and the supernatants were transferred for LC-MS-MS analysis. Four replicates were preformed for each test compound. Data was calculated according to Summerfield S G, Read K, Begley D J, Obradovic T, Hidalgo I J, Coggon S, Lewis A V, Porter R A, Jeffrey P 2007. Central Nervous System Drug Disposition: The Relationship between in Situ Brain Permeability and Brain Free Fraction.

The nature of data set [3]: Microsomal stability, C57 mouse liver microsomes. Type of data set: in vitro ADME. To be noted: 0.5 mg/mL protein. The protocol: (§1) The assay protocol was described in Summerfield S G, Read K, Begley D J, Obradovic T, Hidalgo I J, Coggon S, Lewis A V, Porter R A, Jeffrey P 2007. Central Nervous System Drug Disposition: The Relationship between in Situ Brain Permeability and Brain Free Fraction. J Pharmacol Exp Ther, 322(1):205-213; and Li Di, E. Kerns, S. Li, S. Petusky, “High Throughput Metabolic Stability Assay for Insoluble Compounds”, Int. J. Pharm., 317, 54-60, 2006.
(§2) The samples were incubated with liver microsomes from rat, mouse, and human at 1 μM at microsomal protein concentration of 0.5 mg/mL at 37° C. in the presence of NADPH cofactor. At both time 0 and 15 minutes incubation, cold acetonitrile was added to the wells to stop the reaction. The solution was centrifuged and the supernatants were analyzed using LC-MS-MS. “Phase I” represents Phase I metabolism-oxidative metabolism by microsomes and “Phase II” represents Phase I oxidative metabolism (stated above) plus cofactors added that allow for Phase II (non-oxidative, conjugative) metabolism to take place.

The nature of data set [4]: MDCK permeability assay (efflux ratio). To be noted: dog, MDCK-MDR1, pH 7.4, MDR-MDCK cells, 37° C., Papp(B-A)/Papp(A-B). The data set is classed as in vitro ADME, Canine. The protocol: 1. MDCK Permeability Assay
Multi Drug Resistance-Madin-Darby Canine Kidney (MDR-MDCK) cells were obtained from NIH (Bethesda, Md., USA). Cells were plated on Costar 3401 Transwell 12 well, 12 mm diameter, 0.4 um pore size plates (Costar, Mass., USA) and cultured for at least 6 days prior to the transport assay. The cells were carefully pre-washed with Hank's balanced salt solution containing 10 mM HEPES and 15 mM D-glucose at pH 7.4, which was also used as the assay buffer. The test compounds were dosed on the apical side (A-B) or the basolateral side (B-A) with 0.2 mM Lucifer Yellow (500 μL into apical side, 1500 μL into basolateral side). The test compounds in the apical or basolateral chambers were at an initial concentration of 10 μM. The plates were incubated at 37° C. with 5% CO2 and 90% relative humidity for 2 hours. One hundred microliters of receiver solution (basolateral side for A-B transport experiment, apical side for B-A transport experiment) was transferred to a 96 well plate for LC-MS-MS quantization of the test compound concentration and fluorometer quantization of Lucifer Yellow.
Quality control compounds and TEER measurements were run to assure proper operation of the assay (see Table 2). The TEER values of each well use for the assay should be ≧1400 ohm·cm^2.

Data set [5] in a line: Microsomal stability, human liver microsomes. The data set is classed as in vitro ADME. To be noted: 0.5 mg/mL protein. The protocol: as §1, §2
A short description of data set [6]: Microsomal stability, rat liver microsomes. Type of data set: in vitro ADME. To be noted: 0.5 mg/mL protein. The protocol:
as §1, §2

Where [7] appears, read: NADPH, Phase I, read-out: Microsomal Stability C57 Mouse Phase I t1/2.
The mark [8] stands for this setting: Phase I plus Phase II cofactors, read-out: Microsomal Stability C57 Mouse Phase I & II t1/2.
The mark [9] stands for this setting: NADPH, Phase I, read-out: Microsomal Stability Human Phase I t1/2.
[10] abbreviates: Phase I plus Phase II cofactors, read-out: Microsomal Stability Human Phase I & II t1/2.
The mark [11] stands for this setting: NADPH, Phase I, read-out: Microsomal Stability Rat Phase I t1/2.
Setting [12] is: Phase I plus Phase II cofactors, read-out: Microsomal Stability Rat Phase I & II t1/2.

Bounds are passed on as bounds.

T1 sequence (P09874 whole entry): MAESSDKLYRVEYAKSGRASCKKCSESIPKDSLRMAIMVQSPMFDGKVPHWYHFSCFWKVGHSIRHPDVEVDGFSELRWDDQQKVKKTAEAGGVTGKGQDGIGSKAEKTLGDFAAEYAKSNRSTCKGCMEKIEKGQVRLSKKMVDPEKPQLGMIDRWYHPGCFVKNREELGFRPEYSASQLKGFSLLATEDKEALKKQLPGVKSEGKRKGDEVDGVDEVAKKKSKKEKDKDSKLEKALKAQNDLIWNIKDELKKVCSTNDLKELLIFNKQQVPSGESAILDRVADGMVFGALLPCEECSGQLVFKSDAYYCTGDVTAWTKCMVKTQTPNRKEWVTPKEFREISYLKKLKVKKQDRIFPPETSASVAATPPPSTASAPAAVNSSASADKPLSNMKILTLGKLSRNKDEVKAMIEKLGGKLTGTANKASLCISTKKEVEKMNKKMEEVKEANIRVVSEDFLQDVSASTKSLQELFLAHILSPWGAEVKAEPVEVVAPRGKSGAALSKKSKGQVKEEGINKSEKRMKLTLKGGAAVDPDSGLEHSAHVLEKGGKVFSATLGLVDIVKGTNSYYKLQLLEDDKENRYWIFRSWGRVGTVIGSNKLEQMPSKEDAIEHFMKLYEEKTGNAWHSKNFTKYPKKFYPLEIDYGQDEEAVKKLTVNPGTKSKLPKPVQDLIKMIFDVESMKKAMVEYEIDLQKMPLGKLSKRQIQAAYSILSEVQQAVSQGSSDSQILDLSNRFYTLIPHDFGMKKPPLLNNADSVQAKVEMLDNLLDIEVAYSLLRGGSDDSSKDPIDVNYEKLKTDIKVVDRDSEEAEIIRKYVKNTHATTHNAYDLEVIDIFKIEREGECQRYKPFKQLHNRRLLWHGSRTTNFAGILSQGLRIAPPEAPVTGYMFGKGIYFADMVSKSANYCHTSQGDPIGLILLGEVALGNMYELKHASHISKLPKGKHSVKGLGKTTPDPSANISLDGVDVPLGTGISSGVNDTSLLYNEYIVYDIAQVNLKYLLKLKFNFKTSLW

For the compound `COc1cccc2c(=O)[nH]c3sc(CN(C)C)cc3c12.Cl` [Example 1, 2-Dimethylaminomethyl-9-methoxythieno[2,3-c]isoquinolin-5(4H)-one hydrochloride], the melting point lay within 264 to 265 °C. Besides, in data set [1], the half-maximal inhibitory concentration (IC50) was 137 nM.
Take `Br.CN(C)Cc1cc2c([nH]c(=O)c3cccc(O)c32)s1` [Example 2, 2-Dimethylaminomethyl-9-hydroxythieno[2,3-c]isoquinolin-5(4H)-one hydrobromide]: in data set [2], the Kp at 5 h, 10 μM stood at 0.05. Moreover, in data set [2], the B/P ratio divided by MDCK efflux ratio at 10 μM came to 0.03. For the same compound, the half-life at 1 μM was 15 min in data set [3] (setting [7]); 19 min in data set [3] (setting [8]); > 30 min in data set [5] (setting [9]); 17 min in data set [5] (setting [10]); 6 min in data set [6] (setting [11]); < 1 min in data set [6] (setting [12]). In addition, in data set [4], the efflux ratio at 2 h, 10 μM was determined as 1.7. The 50% inhibitory concentration (IC50) in data set [1] turned out to be 28 nM.
Consider `O=c1[nH]c2sc(CN3CCOCC3)cc2c2c(O)cccc12` [Example 10, 9-Hydroxy-2-(morpholin-4-ylmethyl)thieno[2,3-c]isoquinolin-5(4H)-one], for which the Kp at 5 h, 10 μM in data set [2] stood at 0.81. In data set [2], the B/P ratio divided by MDCK efflux ratio at 10 μM was found to be 0.04. For the same compound, the half-life at 1 μM in data set [3] (setting [7]) was > 30 min; in data set [3] (setting [8]), > 30 min; in data set [5] (setting [9]), > 30 min; in data set [5] (setting [10]) it was 30 min; in data set [6] (setting [11]), 30 min; in data set [6] (setting [12]), > 30 min. Besides, the efflux ratio at 2 h, 10 μM in data set [4] worked out at 3.1. Further, in data set [1], the IC50 turned out to be 5.6 nM.
In the case of `O=c1[nH]c2sc(CN3CCCCC3)cc2c2c(O)cccc12` [Example 11, 9-Hydroxy-2-(piperidin-1-ylmethyl)thieno[2,3-c]isoquinolin-5(4H)-one], in data set [2], the Kp at 5 h, 10 μM amounted to 1.25. Besides, in data set [2], the B/P ratio divided by MDCK efflux ratio at 10 μM was 0.12. The half-life at 1 μM in data set [3] (setting [7]) was 27 min; in data set [3] (setting [8]), > 30 min; in data set [5] (setting [9]) it was 19 min; in data set [5] (setting [10]) it was 17 min; in data set [6] (setting [11]), 10 min; in data set [6] (setting [12]), 18 min. Besides, the efflux ratio at 2 h, 10 μM in data set [4] was determined as 10.4. Besides, the concentration for half-maximal inhibition (IC50) in data set [1] was 4.7 nM.
As to `O=c1[nH]c2sc(CN3CCSC3)cc2c2c(O)cccc12` [Example 12, 9-Hydroxy-2-(1,3-thiazolidin-3-ylmethyl)thieno[2,3-c]isoquinolin-5(4H)-one], the Kp at 5 h, 10 μM in data set [2] amounted to 0.79. Also, in data set [2], the B/P ratio divided by MDCK efflux ratio at 10 μM was determined as 0.79. Moreover, the half-life at 1 μM in data set [3] (setting [7]) came to 4 min; in data set [3] (setting [8]), 5 min; in data set [5] (setting [9]), 6 min; in data set [5] (setting [10]), 4 min; in data set [6] (setting [11]) it was 5 min; in data set [6] (setting [12]) it was 5 min. Also, the efflux ratio at 2 h, 10 μM in data set [4] was determined as 0.8. Further, the IC50 in data set [1] worked out at 3.3 nM.
In the case of `CC(C)NCc1cc2c([nH]c(=O)c3cccc(O)c32)s1` [Example 13, 9-Hydroxy-2-{[(1-methylethyl)amino]methyl}thieno[2,3-c]isoquinolin-5(4H)-one], the Kp at 5 h, 10 μM in data set [2] was 1.53. For the same compound, the half-life at 1 μM was 28 min in data set [3] (setting [7]); 24 min in data set [3] (setting [8]); > 30 min in data set [5] (setting [9]); > 30 min in data set [5] (setting [10]); < 1 min in data set [6] (setting [11]); < 1 min in data set [6] (setting [12]). In addition, in data set [1], the 50% inhibitory concentration (IC50) was determined as 86 nM.
`O=c1[nH]c2sc(CN3CCCC3)cc2c2c(O)cccc12` [Example 14, 9-Hydroxy-2-(pyrrolidin-1-ylmethyl)thieno[2,3-c]isoquinolin-5(4H)-one]: the Kp at 5 h, 10 μM in data set [2] amounted to 1.03. The B/P ratio divided by MDCK efflux ratio at 10 μM in data set [2] was < 0.05. Besides, the half-life at 1 μM in data set [3] (setting [7]), in data set [3] (setting [8]), in data set [5] (setting [9]), in data set [5] (setting [10]), in data set [6] (setting [11]) and in data set [6] (setting [12]) was > 30 min each time. The efflux ratio at 2 h, 10 μM in data set [4] is > 20. For the same compound, in data set [1], the 50% inhibitory concentration (IC50) came out at 81 nM.
As for `O=c1[nH]c2sc(CN3CCC(Br)CC3)cc2c2c(O)cccc12` [Example 15, 2-[(4-Bromopiperidin-1-yl)methyl]-9-hydroxythieno[2,3-c]isoquinolin-5(4H)-one], the Kp at 5 h, 10 μM in data set [2] is 1.12. For the same compound, the B/P ratio divided by MDCK efflux ratio at 10 μM in data set [2] came to 1.12. Moreover, the half-life at 1 μM was determined as 4 min in data set [3] (setting [7]); 3 min in data set [3] (setting [8]); 7 min in data set [5] (setting [9]); 5 min in data set [5] (setting [10]); 3 min in data set [6] (setting [11]); 3 min in data set [6] (setting [12]). Moreover, the efflux ratio at 2 h, 10 μM in data set [4] is 0.9. Further, in data set [1], the IC50 turned out to be 35 nM.
